Measurements reported in paper PMC3250956, “Functional characterization and analgesic effects of mixed cannabinoid receptor/T-type channel ligands” (Molecular Pain, 2011).

How the values were obtained:
formalin-induced pain = test: Formalin test (formalin-induced nociception); assay type: in vivo, mice; settings: for effect on second phase of formalin-induced nociception / effect on first phase of formalin-induced nociception: i.pl., co-injected with formalin; for effect on second phase of formalin-induced nociception: 0.03-3 μg/paw; for effect on first phase of formalin-induced nociception: NMP-4 and NMP-144 0.03-3 μg/paw, NMP-7 0.3-3 μg/i.pl.; for reduction of pain response time, first (neurogenic) phase / reduction of pain response time, second (inflammatory) phase: 10 min prior, NMP-4 1-10 μg/i.t., NMP-144 0.1-1 μg/i.t., NMP-7 3-30 μg/i.t., mice
Procedure: All experiments were conducted following the protocol approved by the Institutional Animal Care and Use Committee (protocol #M09130) and all efforts were made to minimize animal suffering. Male mice of C57BL/6J strain weighing 25~30 g, 10 weeks old were used. Animals were housed at a maximum number of five per cage (30 × 20 × 15 cm) with food and water ad libitum. They were kept in 12 h light/dark cycles (lights on at 7:00 a.m.) at a temperature of 23 ± 1°C. All manipulations were carried out between 11:00 am and 3:00 pm. […] Control animals received the same vehicle used to dilute the compounds. When drugs were delivered by intraperitoneal (i.p.) route, a constant volume of 10 ml/kg body weight was injected. When drugs were administered by intrathecal (i.t.) or intraplantar (i.pl.) routes, respectively volumes of 5 μl or 20 μl were injected. Appropriate vehicle-treated groups were also assessed simultaneously.
The formalin test is a widely used model that allows us to evaluate two different types of pain: neurogenic pain (phase 1) is caused by direct activation of nociceptive nerve terminals, while inflammatory pain (phase 2) is mediated by a combination of peripheral input and spinal cord sensitization. Animals received 20 μl of a formalin solution (1.25%) made up in PBS injected intraplantarly (i.pl.) in the ventral surface of the right hindpaw. Following i.pl. injection of formalin, the animals were immediately placed individually into observation chambers and the time spent licking or biting the injected paw was be recorded and considered as nociceptive response. We observed animals individually from 0-5 min (neurogenic phase) and 15-30 min (inflammatory phase).
Intrathecal injections were given to fully conscious mice using the method previously described by Hylden and Wilcox. Briefly, the animals were manually restrained, and a 30-gauge needle connected by a polyethylene tube to a 25 μl Hamilton syringe (Hamilton, Birmingham, UK) was inserted through the skin and between the vertebrae into the […] space of the L5-L6 spinal segments. Intrathecal injections were given over a period of 5 seconds.

Cav3.2 = molecular target: T1, Cav3.2 (Homo sapiens, UniProt O95180); test: Whole-cell patch-clamp on Cav3.2: concentration-response and steady-state inactivation; assay type: cell-based; settings: 10 μM; for half-inactivation potential after treatment with drug: n = 4
T1 construct: expressed in transfected cells; host or cells: tsA-201 cells, transient calcium phosphate transfection
T1 sequence (O95180 whole entry): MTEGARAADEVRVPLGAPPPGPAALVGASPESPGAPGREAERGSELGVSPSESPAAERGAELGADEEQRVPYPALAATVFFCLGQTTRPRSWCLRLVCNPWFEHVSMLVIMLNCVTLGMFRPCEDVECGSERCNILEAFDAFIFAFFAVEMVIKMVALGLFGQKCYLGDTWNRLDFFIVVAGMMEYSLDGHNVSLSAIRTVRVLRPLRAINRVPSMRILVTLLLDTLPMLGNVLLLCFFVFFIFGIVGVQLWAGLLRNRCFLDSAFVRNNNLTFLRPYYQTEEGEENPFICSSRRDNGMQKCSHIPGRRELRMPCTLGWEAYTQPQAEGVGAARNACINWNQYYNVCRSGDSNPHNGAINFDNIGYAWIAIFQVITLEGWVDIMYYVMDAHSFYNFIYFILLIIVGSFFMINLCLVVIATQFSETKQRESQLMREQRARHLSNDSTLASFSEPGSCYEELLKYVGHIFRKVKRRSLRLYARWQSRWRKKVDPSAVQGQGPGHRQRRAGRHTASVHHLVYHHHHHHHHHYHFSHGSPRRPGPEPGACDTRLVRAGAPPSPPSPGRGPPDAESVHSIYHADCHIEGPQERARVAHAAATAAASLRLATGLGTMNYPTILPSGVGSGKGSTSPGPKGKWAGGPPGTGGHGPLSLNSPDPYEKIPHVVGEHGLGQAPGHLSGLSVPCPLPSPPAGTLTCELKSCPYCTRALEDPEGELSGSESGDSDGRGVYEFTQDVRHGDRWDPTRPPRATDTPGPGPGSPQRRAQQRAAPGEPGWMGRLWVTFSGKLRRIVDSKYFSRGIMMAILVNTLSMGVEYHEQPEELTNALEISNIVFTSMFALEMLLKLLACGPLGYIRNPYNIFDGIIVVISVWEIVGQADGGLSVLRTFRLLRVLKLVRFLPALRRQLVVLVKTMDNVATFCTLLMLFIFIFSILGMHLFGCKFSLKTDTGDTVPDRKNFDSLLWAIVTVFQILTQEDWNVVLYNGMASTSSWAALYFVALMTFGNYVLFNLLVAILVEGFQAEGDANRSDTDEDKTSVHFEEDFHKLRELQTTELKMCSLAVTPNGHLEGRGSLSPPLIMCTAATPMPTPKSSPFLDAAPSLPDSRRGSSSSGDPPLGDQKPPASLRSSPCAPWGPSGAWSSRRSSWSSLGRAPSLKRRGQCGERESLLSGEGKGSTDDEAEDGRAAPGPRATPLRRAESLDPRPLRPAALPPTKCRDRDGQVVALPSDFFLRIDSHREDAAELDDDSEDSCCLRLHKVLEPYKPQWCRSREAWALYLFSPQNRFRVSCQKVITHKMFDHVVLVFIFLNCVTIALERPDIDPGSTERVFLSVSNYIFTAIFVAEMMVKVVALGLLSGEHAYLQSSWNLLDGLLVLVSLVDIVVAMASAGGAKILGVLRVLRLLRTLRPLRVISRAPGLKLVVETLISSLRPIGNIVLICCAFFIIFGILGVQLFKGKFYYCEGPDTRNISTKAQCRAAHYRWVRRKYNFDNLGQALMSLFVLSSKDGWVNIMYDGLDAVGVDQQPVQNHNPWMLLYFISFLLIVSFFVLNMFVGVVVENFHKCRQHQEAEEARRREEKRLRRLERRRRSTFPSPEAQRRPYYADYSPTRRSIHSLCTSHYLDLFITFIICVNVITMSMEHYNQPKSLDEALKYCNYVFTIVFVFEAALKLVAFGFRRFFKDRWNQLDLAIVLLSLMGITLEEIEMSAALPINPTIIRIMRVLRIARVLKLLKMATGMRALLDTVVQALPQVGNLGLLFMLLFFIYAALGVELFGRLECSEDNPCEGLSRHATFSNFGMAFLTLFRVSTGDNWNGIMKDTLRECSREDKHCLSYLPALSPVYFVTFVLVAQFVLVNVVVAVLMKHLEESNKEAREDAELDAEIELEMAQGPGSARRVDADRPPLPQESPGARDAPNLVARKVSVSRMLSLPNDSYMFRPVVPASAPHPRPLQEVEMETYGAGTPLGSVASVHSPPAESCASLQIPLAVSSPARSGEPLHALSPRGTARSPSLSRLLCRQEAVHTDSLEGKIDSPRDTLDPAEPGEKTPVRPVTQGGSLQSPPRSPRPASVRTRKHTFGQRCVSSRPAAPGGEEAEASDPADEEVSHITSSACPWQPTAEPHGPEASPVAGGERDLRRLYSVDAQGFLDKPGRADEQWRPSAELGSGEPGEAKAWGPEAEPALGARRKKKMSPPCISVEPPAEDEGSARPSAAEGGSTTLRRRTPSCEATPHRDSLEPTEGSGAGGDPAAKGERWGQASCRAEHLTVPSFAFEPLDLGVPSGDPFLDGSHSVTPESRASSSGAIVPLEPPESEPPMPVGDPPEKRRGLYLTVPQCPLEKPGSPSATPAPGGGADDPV
Procedure: To further characterize compounds NMP-4, NMP-7 and NMP-144, we investigated the concentration dependence of their action on Cav3.2, the major T-type calcium channel subtype implicated in the afferent pain pathway (Figure 2B, C).
To determine whether these compounds also affected inactivated channels, we recorded steady-state inactivation curves prior and after application of NMP-4, NMP-7 or NMP-144.
Whole-cell currents were recorded from tsa-201 cells 2-4 days after transfection. The external recording solution contained (in mM): BaCl2 (20), MgCl2 (1), HEPES (10), TEA-Cl (40), CsCl (65), d-glucose (10) and pH 7.2 adjusted with TEA-OH. The internal pipette solution was composed of (in mM) Cs-methanesulfonate (108), MgCl2 (4), EGTA (9), HEPES (9) and pH 7.2 adjusted with CsOH. The internal solution was supplemented with 0.6 mM GTP (sodium salt) and 2 mM ATP (tris salt), which were added directly to the internal solution immediately prior to use. Pipettes with a resistance of 2~5 MΩ when filled with internal solution were used for recording. Currents were elicited from a holding potential of -100 mV and were measured by conventional whole-cell patch clamp using an Axopatch 200B amplifier in combination with Clampex 9.2 software (Axon Instruments, Foster City, CA). Data were filtered at 1 kHz (8-pole Bessel) and digitized at 10 kHz with a Digidata 1320 (Axon Instruments, Foster City, CA). Series resistance were compensated by 85% in all experiments. An online P/4 programme was used to subtract the leak currents. Drugs were dissolved in DMSO at the following stock concentrations: 20 mM for NMP-4 and NMP-7, and 10 mM for NMP-139, NMP-140, NMP-141 and NMP-144. Prior to the experiment, drugs were diluted into external recording solution with a final DMSO concentration no higher than 0.3%. DMSO was also included in the control solution. Drug delivery was controlled by a Valvelink8.2 fast perfusion system (Automate Scientific Inc., Berkeley, CA). The perfusion tip was positioned a few hundred microns from the cell and kept as constant as possible throughout the experiments. Electrophysiological data were analyzed using Clampfit 9.2 (Axon Instruments, Foster City, CA) and GraphPad Prism 5 software (GraphPad Software Inc., San Diego, CA). […] Steady-state inactivation curves were fitted using the Boltzmann equation: I = 1/(1 + e ^(V-Vh)/k), where Vh is the half inactivating potential and k is the slope factor.

SMILES | effect of i.pl. pre-treatment on the antinociceptive effect of NMP-7 (1 μg/i.pl.), first phase (formalin-induced pain; NMP-4 0.03 μg/i.pl. pre-treatment) | effect on second phase of formalin-induced nociception (formalin-induced pain) | effect on first phase of formalin-induced nociception (formalin-induced pain) | reduction of pain response time, first (neurogenic) phase (formalin-induced pain; i.t.) [%] | reduction of pain response time, second (inflammatory) phase (formalin-induced pain; i.t.) [%] | hyperpolarizing shift in the half inactivation potential of Cav3.2 channels (Cav3.2) | half-inactivation potential after treatment with drug (Cav3.2) [mV] | lowest dose producing analgesia (formalin-induced pain; i.t., formalin response) [μg/i.t.]
CCCCCn1c2ccc(C(=O)N3CCCCC3)cc2c2ccc(OC)cc21 [NMP-4] | significantly antagonized | no effect was observed | no effect was observed | 44 ± 4 | 87 ± 7 | 20 mV | -72.9 ± 4.7 | –
CCCCCn1c2c(c3ccc(OC)cc31)CN(C(=O)c1ccccc1)CC2 [NMP-144] | – | no effect was observed | no effect was observed | 52 ± 3 | 53 ± 14 | did not significantly affect voltage-dependent inactivation | -55.8 ± 2.2 | 0.3
